Data reported in ChEMBL document CHEMBL5236560, “Structure-Based Discovery of Potent CARM1 Inhibitors for Solid Tumor and Cancer Immunology Therapy” (J Med Chem, 2021).

Tests used:
[1] = test system: A-375; assay: Antitumor activity against human A-375 cells xenografted in po dosed nude mouse assessed as tumor growth inhibition at 100 mg/kg administered once daily measured after 21 days relative to control; format: functional; conditions: A-375, 504 h, time 21 day, read-out: TGI
[2] = test system: A-375; assay: Antitumor activity against human A-375 cells xenografted in po dosed nude mouse assessed as tumor growth inhibition at 75 mg/kg administered once daily measured after 21 days relative to control; format: functional; conditions: A-375, 504 h, time 21 day, read-out: TGI
[3] = Metabolic stability in rat liver microsomes assessed as parent compound remaining measured after 2 hrs; format: ADME, Microsome; conditions: read-out: Stability
[4] = Metabolic stability in monkey liver microsomes assessed as parent compound remaining measured after 2 hrs; format: ADME, Macaca mulatta, Microsome; conditions: rhesus monkey, read-out: Stability
[5] = AUClast in ICR mouse at 10 mg/kg, po measured upto 24 hrs by UPLC analysis; format: ADME, organism-based; design: dose 10 mg/kg, time < 24 hrs, route po; conditions: in vivo
[6] = Cmax in ICR mouse at 10 mg/kg, po measured upto 24 hrs by UPLC analysis; format: ADME, organism-based; design: time < 24 hrs, dose 10 mg/kg, route po; conditions: in vivo
[7] = test system: A-375; assay: Antiproliferative activity against human A-375 cells assessed as cell growth inhibition incubated for 6 days by SRB assay; format: functional, cell-based; conditions: A-375, 144 h
[8] = Metabolic stability in mouse liver microsomes assessed as parent compound remaining measured after 2 hrs; format: ADME, Microsome; conditions: read-out: Stability
[9] = biological target: T1, Histone-arginine methyltransferase CARM1 (Homo sapiens, UniProt Q86X55); assay: Inhibition of human CARM1 (140 to 480 residues) incubated for 15 mins measured after 60 min by AlphaLISA assay
T1 sequence (Q86X55 whole entry): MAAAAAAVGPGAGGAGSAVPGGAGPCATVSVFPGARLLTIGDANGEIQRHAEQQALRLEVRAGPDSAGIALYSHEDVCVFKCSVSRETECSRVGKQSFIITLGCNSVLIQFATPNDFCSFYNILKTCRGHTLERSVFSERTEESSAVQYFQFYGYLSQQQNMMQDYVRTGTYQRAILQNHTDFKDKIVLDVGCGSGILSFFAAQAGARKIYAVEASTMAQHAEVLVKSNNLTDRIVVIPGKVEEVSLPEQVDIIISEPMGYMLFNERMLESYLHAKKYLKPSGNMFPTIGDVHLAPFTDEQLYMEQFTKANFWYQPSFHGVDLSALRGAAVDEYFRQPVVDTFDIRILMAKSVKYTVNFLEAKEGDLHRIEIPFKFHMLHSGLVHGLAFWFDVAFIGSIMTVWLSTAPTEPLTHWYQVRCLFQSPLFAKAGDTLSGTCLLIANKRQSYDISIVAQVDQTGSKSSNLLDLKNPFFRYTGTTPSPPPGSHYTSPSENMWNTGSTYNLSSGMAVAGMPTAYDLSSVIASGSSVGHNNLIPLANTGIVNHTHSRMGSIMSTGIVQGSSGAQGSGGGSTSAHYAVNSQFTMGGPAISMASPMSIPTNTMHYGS

[10] = Metabolic stability in human liver microsomes assessed as parent compound remaining measured after 2 hrs; format: ADME, Microsome; conditions: read-out: Stability
[11] = Half life in ICR mouse at 10 mg/kg, po measured upto 24 hrs by UPLC analysis; format: ADME, organism-based; conditions: in vivo
[12] = test system: BT-549; assay: Antiproliferative activity against human BT-549 cells assessed as cell growth inhibition incubated for 6 days by SRB assay; format: functional, cell-based; conditions: BT-549, 144 h
[13] = Metabolic stability in dog liver microsomes assessed as parent compound remaining measured after 2 hrs; format: ADME, Canis lupus familiaris, Microsome; conditions: read-out: Stability
[14] = AUC(0 to infinity) in ICR mouse at 10 mg/kg, po measured upto 24 hrs by UPLC analysis; format: ADME, organism-based; design: dose 10 mg/kg, time < 24 hrs, route po; conditions: in vivo
[15] = Tmax in ICR mouse at 10 mg/kg, po measured upto 24 hrs by UPLC analysis; format: ADME, organism-based; conditions: in vivo

Row | SMILES | IC50 [7] [µM] | IC50 [9] [nM] | IC50 [12] [µM] | further results
1 | CNC[C@@H](O)COc1ccc(Cl)c(-c2nc(-c3c(C)noc3C)c(C)c(N3CC4(CCN(C(=O)OC)CC4)C3)n2)c1 |  |  |  | inhibition in vivo at 100 mg/kg [1]: 82.6%; inhibition in vivo at 75 mg/kg [2]: 24%
2 | CNCCNCc1cccc(-c2nc(NC3CCOCC3)c(C)c(-c3c(C)noc3C)n2)c1 | > 50 | 1.63 | > 50 | remaining at 2 h [3]: 93.4%; remaining at 2 h [4]: 86.1%; AUC(0-t) at 24 h [5]: 199 ng·h/mL; Cmax [6]: 95.4 ng/mL; remaining at 2 h [8]: 90%; remaining at 2 h [10]: 93.1%; half-life [11]: 394 min; remaining at 2 h [13]: 85.5%; AUC(0-inf) [14]: 209 ng·h/mL; Tmax [15]: 1.33 h
3 | CNCCNCc1cccc(-c2nc(NC3CCOCC3)c(C)c(-c3ccc(S(C)(=O)=O)cc3)n2)c1 |  | 5.2 |  | 
4 | CNCCNCc1cccc(-c2nc(NC3CCOCC3)c(C)c(-c3cc4cccc(OC)c4[nH]3)n2)c1 |  | 29.4 |  | 
5 | CNCCNCc1cccc(-c2nc(Nc3ccccc3)c(C)c(-c3cccnc3)n2)c1 | 10.9 | 11.6 | 14.1 | 
6 | Cc1noc(C)c1-c1nc(-c2cccc(CNC(=O)[C@@H](N)CO)c2)nc(NC2CCOCC2)c1C |  | > 1000 |  | 
7 | CNCCNCc1cccc(-c2nc(-c3c(C)noc3C)c(C)c(N3Cc4ccccc4C3)n2)c1 |  | 10.1 |  | 
8 | CNCCNCc1cccc(-c2nc(NC3CCOCC3)c(C)c(-c3ccc(OC(F)(F)F)cc3)n2)c1 |  | 5.13 |  | 
9 | CNCCNCc1cccc(-c2nc(NC3CCOCC3)c(C)c(-c3cccc4cnccc34)n2)c1 | 12.7 | 4.37 | 32 | 
10 | CNCCNCc1cccc(-c2nc(NC3CCOCC3)c(C)c(-c3cccc4[nH]ccc34)n2)c1 |  | 11.8 |  | 
11 | CNCCNCc1cccc(-c2nc(Nc3ccccc3)c(C)c(NC3CCOCC3)n2)c1 |  | 187 |  | 
12 | CNCCNCc1cccc(-c2nc(NC3CCOCC3)c(C)c(-c3cc4ccccc4s3)n2)c1 |  | 21.4 |  | 
13 | CNCCNCc1cccc(-c2nc(NC3CCOCC3)c(C)c(-c3c(C)nn(C)c3C)n2)c1 | > 50 | 0.65 | > 50 | 
14 | Cc1c(NC2CCOCC2)nc(-c2cccc(CNC(=O)[C@@H](N)CO)c2)nc1-c1ccccc1 |  | > 1000 |  | 
15 | Cc1noc(C)c1-c1nc(-c2cccc(CNC(=O)[C@H](C)N)c2)nc(NC2CCOCC2)c1C |  | > 1000 |  | 
16 | Cc1c(NC2CCOCC2)nc(-c2cccc(CNC(=O)[C@H](C)N)c2)nc1-c1ccncc1 |  | > 1000 |  | 
17 | CNCCNCc1cccc(-c2nc(NC3CCOCC3)c(C)c(-c3ccccn3)n2)c1 |  | 6.15 |  | 
18 | Cc1c(NC2CCOCC2)nc(-c2cccc(CNC(=O)[C@@H](N)CO)c2)nc1-c1ccncc1 |  | > 1000 |  | 
19 | CNCCNCc1cccc(-c2nc(NC3CCOCC3)c(C)c(-c3cncnc3)n2)c1 | > 50 | 4.29 | > 50 | 
20 | CNCCNCc1cccc(-c2nc(NCc3ccccc3)c(C)c(NC3CCOCC3)n2)c1 |  | 31.5 |  | 
21 | CNCCNCc1cccc(-c2nc(NC3CCOCC3)c(C)c(-c3ccnn3C)n2)c1 | > 50 | 2.94 | > 50 | 

Row | SMILES | IC50 [7] [µM] | IC50 [9] [nM] | IC50 [12] [µM] | further results
22 | CNCCNCc1cccc(-c2nc(NC3CCOCC3)c(C)c(OCc3ccccc3)n2)c1 |  | 33.6 |  | 
23 | CNCCNCc1cccc(-c2nc(NC3CCOCC3)c(C)c(-c3cccc4ncccc34)n2)c1 |  | 6.07 |  | 
24 | CNCCNCc1cccc(-c2nc(NC3CCOCC3)c(C)c(-c3ccnc4[nH]ccc34)n2)c1 | 18.2 | 3.84 | 25.2 | 
25 | CNCCNCc1cccc(-c2nc(Cl)c(C)c(NC3CCOCC3)n2)c1 |  | 29.5 |  | 
26 | CNCCNCc1cccc(-c2nc(NC3CCOCC3)c(C)c(-c3cn(C)nc3C)n2)c1 | > 50 | 3.78 | > 50 | 
27 | CNCCNCc1cccc(-c2nc(-c3c(C)noc3C)c(C)c(N3CCN(C)CC3)n2)c1 |  | 13.1 |  | 
28 | CNCCNCc1cccc(-c2nc(-c3c(C)noc3C)c(C)c(N3CCCCC3)n2)c1 |  | 21.7 |  | 
29 | CNCCNCc1cccc(-c2nc(NC3CCOCC3)c(C)c(-c3cccnc3)n2)c1 | 45.5 | 0.92 | > 50 | 
30 | CNCCNCc1cccc(-c2nc(Nc3ccccc3)c(C)c(-c3c(C)nn(C)c3C)n2)c1 | 6.7 | 19.6 | 8.2 | 
31 | CNCCNCc1cccc(-c2nc(NC3CCN(S(C)(=O)=O)CC3)c(C)c(-c3c(C)noc3C)n2)c1 | > 50 | 4.24 | > 50 | 
32 | CNCCNCc1cccc(-c2nc(NC3CCOCC3)c(C)c(-c3ccncc3)n2)c1 | 44.3 | 3.68 | > 50 | 
33 | CNCCNCc1cccc(-c2nc(-c3c(C)noc3C)c(C)c(N3Cc4cccnc4C3)n2)c1 | 8.2 | 1.13 | 11.9 | 
34 | CNCCNCc1cccc(-c2nc(NC3CCOCC3)c(C)c(-c3ccc(OC)cc3)n2)c1 |  | 26.9 |  | 
35 | CNCCNCc1cccc(-c2nc(-c3c(C)noc3C)c(C)c(N3CCN(C(C)=O)CC3)n2)c1 |  | 11.5 |  | 
36 | CNCCNCc1cccc(-c2nc(NC3CCOCC3)c(C)c(-c3ccccc3)n2)c1 |  | 10.2 |  | 
37 | CNCCNCc1cccc(-c2nc(NC3CCOCC3)c(C)c(-c3ccc(O)cc3)n2)c1 | 24.1 | 2.3 | 23.7 | 
38 | CNCCNCc1cccc(-c2nc(-c3c(C)noc3C)c(C)c(N3CCS(=O)(=O)CC3)n2)c1 | > 50 | 2.46 | > 50 | 
39 | CNCCNCc1cccc(-c2nc(-c3c(C)noc3C)c(C)c(N3CCN(S(C)(=O)=O)CC3)n2)c1 | > 50 | 0.78 | > 50 | 
40 | CNCCNCc1cccc(-c2nc(-c3c(C)noc3C)c(C)c(N3CCOCC3)n2)c1 | 24.7 | 1.1 | > 50 | 
41 | CNCCNCc1cccc(-c2nc(NC3CCOCC3)c(C)c(Oc3ccccc3)n2)c1 |  | 60 |  | 
42 | Cc1c(NC2CCOCC2)nc(-c2cccc(CNC(=O)[C@H](C)N)c2)nc1-c1ccccc1 |  | > 1000 |  | 
